The text below walks through data of patent US4268510A, “1,3-Benzoxazine trichloromethyl derivatives, compositions and use” (Imperial Chemical Industries Limited, priority 1978, dated 1981).

By inhibition is commonly meant the change of the read-out against control, counted positive when it falls.

The structures appear in SMILES notation.

In the first test the test system is rumen metabolism.
Experiment: not given
The conditions noted are these: known prior art, administered to ruminant animals; cited from earlier work.
As for `O=CC(Cl)(Cl)Cl` [chloral], the “effect on rumen metabolism (reducing methane production)” value is recorded as “beneficial effect on rumen metabolism”.
Turning to `NC(=O)C(Cl)(Cl)Cl` [trichloroacetamide], the “effect on rumen metabolism (reducing methane production)” value is reported as “beneficial effect on rumen metabolism”.

The next test has as its system methane production from ruminal fluid. Put plainly: in vitro assay of inhibition of methane production from ruminal fluid. The test is classed as cell-based, steers (pooled rumen fluid). The conditions noted are these: at 1 μg./ml.; in vitro rumen fluid, 39° C., 15-16 hours. Here is the method:
Rumen fluid is collected on a regular routine basis from two steers, which are fed on the same hay-plus-concentrate diet. Sampling time is standardised as far as possible, and the fluid from the two animals is pooled on a 50/50 basis. Large particulate matter is removed by filtering the pooled fluid through four layers of muslin cloth. The filtrate is then diluted in the ratio of one volume of filtrate to three volumes of an artificial rumen fluid (prepared as described by G. L. Bales et al., Journal of Dairy Science, 1976, volume 59, page 1850, but omitting acetic acid), and the pH of the mixture is adjusted to 6.9-7.0 with saturated aqueous sodium carbonate solution. Aliquots (50 ml.) of this mixture are dispensed into 100 ml. conical flasks containing dried ground hay (0.5 g.), and each flask is used to test a test compound at a particular concentration.
The test compound is added to the conical flask as a solution in ethanol, the flask is flushed with carbon dioxide gas, stoppered with a suba-seal, and incubated at 39° C. for 15-16 hours. After one hour, a narrow bore needle is inserted through the suba-seal to relieve the gas pressure, and the needle is withdrawn 30 minutes before the incubation is ended. Fermentation is then stopped by placing the flask in ice, and after 15 minutes cooling, the gas over the liquid is analysed for methane by gas chromatography, and the concentration of the test compound required to produce a 50% reduction in methane production (ED50 in μg./ml.) is calculated.
The test of methane inhibition described in Example 12 was repeated for various other compounds, to give the results shown below. The results are expressed as the percentage inhibition of methane production caused by 1 μg./ml. of a test compound, except for those compounds indicated by *, for which 3 μg./ml. was used.
As for `CN1C(=O)c2ccccc2OC1C(Cl)(Cl)Cl` (stereo not drawn) [drawing 8; R1=H; R3=H; R5=CH3, 3,4-dihydro-3-methyl-2-trichloromethylbenzo[e]-[1,3]-oxazin-4-one], the inhibition at 1 µg/mL is 100%.
The compound `O=C1NC(C(Cl)(Cl)Cl)Oc2ccc(C=NO)cc21` (stereo not drawn) [drawing 8; R1=H; R3=HO . N:CH; R5=H, 3,4-dihydro-6-hydroxyiminomethyl-2-trichloromethyl-2-H-benzo[e]-[1,3]-oxazin-4-one] yielded an inhibition at 1 µg/mL of 41%.
The compound `Nc1ccc2c(c1)C(=O)NC(C(Cl)(Cl)Cl)O2` (stereo not drawn) [drawing 8; R1=H; R3=NH2; R5=H, 6-amino-3,4-dihydro-2-trichloromethyl-2H-benzo[e]-[1,3]-oxazin-4-one] displayed an inhibition at 1 µg/mL of 98%.
On to `O=C1NC(C(Cl)(Cl)Cl)Oc2ccc(S(=O)(=O)O)cc21` (stereo not drawn) [drawing 8; R1=H; R3=SO3 H; R5=H], for which at 1 µg/mL the inhibition was 11%.
Regarding `Cc1cccc2c1NC(C(Cl)(Cl)Cl)OC2` (stereo not drawn) [drawing 9; R1=CH3; R3=H; R11=H, 1,2-dihydro-8-methyl-2-trichloromethyl-4H-benzo[d]-[1,3]-oxazine], the inhibition at 1 µg/mL was 100%.
On to `CC(=O)Oc1ccc2c(c1)COC(C(Cl)(Cl)Cl)N2` (stereo not drawn) [drawing 9; R1=H; R3=CH3 CO . O; R11=H, 6-acetoxy-1,2-dihydro-2-trichloromethyl-4H-benzo[d]-[1,3]-oxazine], for which the inhibition at 1 µg/mL was 30%.
Same read-out and setting: to `COC(=O)c1ccc2c(c1)COC(C(Cl)(Cl)Cl)N2` (stereo not drawn) [drawing 9; R1=H; R3=CH3 O . CO; R11=H, methyl 1,2-dihydro-2-trichloromethyl-4H-benzo[d]-[1,3]-oxazine-6-carboxylate] belongs 100%; to `Clc1ccc2c(c1)COC(C(Cl)(Cl)Cl)N2` (stereo not drawn) [drawing 9; R1=H; R3=Cl; R11=H, 6-chloro-1,2-dihydro-2-trichloromethyl-4H-benzo[d]-[1,3]-oxazine], 100%.
Still for that read-out and setting: to `CCOC(=O)C1OC(C(Cl)(Cl)Cl)Nc2ccccc21` (stereo not drawn) [drawing 9; R1=H; R3=H; R11=C2 H5 O . CO, ethyl 1,2-dihydro-2-trichloromethyl-4H-benzo[d]-[1,3]oxazine-4-carboxylate] belongs 24%; to `O=C(Nc1ccccc1)C1OC(C(Cl)(Cl)Cl)Nc2ccccc21` (stereo not drawn) [drawing 9; R1=H; R3=H; R11=C6 H5 NH . CO, N-phenyl 1,2-dihydro-2-trichloromethyl-4H-benzo[d]-[1,3]-oxazine-4-carboxamide], 57%.
Compound `COC(=O)C1OC(C(Cl)(Cl)Cl)Nc2ccccc21` (stereo not drawn) [drawing 9; R1=H; R3=H; R11=CH3 O . CO, methyl 1,2-dihydro-2-trichloromethyl-4H-benzo[d]-[1,3]-oxazine-4-carboxylate] registered an inhibition at 1 µg/mL of 46%.
Same read-out and setting: to `O=C(O)C1OC(C(Cl)(Cl)Cl)Nc2ccccc21` (stereo not drawn) [drawing 9; R1=H; R3=H; R11=COOH, 1,2-dihydro-2-trichloromethyl-4H-benzo-[d]-[1,3]-oxazine-4-carboxylic acid] belongs 14%; to `CC(C)OC(=O)C1OC(C(Cl)(Cl)Cl)Nc2ccccc21` (stereo not drawn) [drawing 9; R1=H; R3=H; R11=i-C3 H7 O . CO, isopropyl 1,2-dihydro-2-trichloromethyl-4H-benzo[d]-[1,3]-oxazine-4-carboxylate], 37%.
For `CCCOC(=O)C1OC(C(Cl)(Cl)Cl)Nc2ccccc21` (stereo not drawn) [drawing 9; R1=H; R3=H; R11=n-C3 H7 O . CO, propyl 1,2-dihydro-2-trichloromethyl-4H-benzo[d]-[1,3]-oxazine-4-carboxylate], the inhibition at 1 µg/mL came to 31%.
Regarding `CCCCOC(=O)C1OC(C(Cl)(Cl)Cl)Nc2ccccc21` (stereo not drawn) [drawing 9; R1=H; R3=H; R11=n-C4 H9 O . CO, butyl 1,2-dihydro-2-trichloromethyl-4H-benzo[d]-[1,3]-oxazine-4-carboxylate], the inhibition at 1 µg/mL is 12%.
For `CC(=O)N1C(=O)c2ccccc2N(C(C)=O)C1C(Cl)(Cl)Cl` (stereo not drawn) [drawing 10; R3=H; R5=CH3 CO; R6=CH3 CO, 1,3-diacetyl-1,2-dihydro-2-trichloromethylquinazolin-4-one], the inhibition at 1 µg/mL stood at 90%.

The same test, now with this note: at 3 μg./ml.; in vitro rumen fluid, 39° C., 15-16 hours; read-out: % Methane Inhibition (compounds indicated by *).
In the case of `N#Cc1ccc2c(c1)C(=O)NC(C(Cl)(Cl)Cl)O2` (stereo not drawn) [drawing 8; R1=H; R3=CN; R5=H, 3,4-dihydro-4-oxo-2-trichloromethyl-2H-benzo[e]-[1,3]-oxazine-6-carbonitrile], the inhibition at 3 µg/mL was determined as 87%.
Consider `CCOC(=O)c1ccc2c(c1)C(=O)NC(C(Cl)(Cl)Cl)N2` (stereo not drawn) [drawing 10; R3=C2 H5 O . CO; R5=H; R6=H, ethyl 1,2-dihydro-4-oxo-2-trichloromethylquinazoline-6-carboxylate], for which the inhibition at 3 µg/mL is 71%.
As for `O=C(O)c1ccc2c(c1)C(=O)NC(C(Cl)(Cl)Cl)N2` (stereo not drawn) [drawing 10; R3=COOH; R5=H; R6=H, 1,2-dihydro-4-oxo-2-trichloromethylquinazoline-6-carboxylic acid], the inhibition at 3 µg/mL was determined as 5%.
